The source of these data is ChEMBL document CHEMBL1132877, “Novel alpha-glucosidase inhibitors with a tetrachlorophthalimide skeleton” (Bioorg Med Chem Lett, 2000).

Experiment [1] can be described thus: Inhibition of Alpha-glucosidase activity.
Experiment [2] can be described thus: Inhibitory effect on Alpha-glucosidase activity.
Experiment [3] can be described thus: Compound was evaluated for binding affinity towards Alpha-glucosidase analyzed by the surface plasma resonance (SPR) method.
Experiment [4] in a line: Compound was tested for the inhibition of Alpha-glucosidase.

One may read the IC50 as the concentration at which inhibition is half-maximal. A low value points to greater potency.

`O=C1c2cccc(O)c2C(=O)N1c1ccccc1`: the 50% inhibitory concentration (IC50) in experiment [1] is more than 500 µM.

With `Nc1cccc2c1C(=O)N(c1ccccc1)C2=O`, the IC50 in experiment [1] was more than 500 µM.

In the case of `O=C1c2cccc([N+](=O)[O-])c2C(=O)N1c1ccccc1`, the half-inhibitory concentration (IC50) in experiment [1] worked out at 25.9 µM.

For the molecule `O=C1c2c(Cl)c(Cl)c(Cl)c(Cl)c2C(=O)N1c1ccccc1`, the figures for the 50% inhibitory concentration (IC50) in experiment [1] and in experiment [2] were 2.6 µM and 17.9 µM, respectively. In experiment [3], this molecule gave a Ka of 140000 M⁻¹.

For the molecule `O=C1c2ccccc2C(=O)N1Cc1ccccc1`, in experiment [1], the IC50 is more than 500 µM.

In experiment [1], `O=C1c2c(Cl)c(Cl)c(Cl)c(Cl)c2C(=O)N1CCc1ccccc1` displayed an IC50 of 6 µM. The Ka in experiment [3] worked out at 25000 M⁻¹.

`OC[C@H]1NC[C@H](O)[C@@H](O)[C@@H]1O` [DUVOGLUSTAT] displayed an IC50 in experiment [1] of 47.6 µM. The Ka in experiment [3] came to 210000 M⁻¹.

`O=C1c2c(Cl)c(Cl)c(Cl)c(Cl)c2C(=O)N1CCCCCc1ccccc1` returned an IC50 in experiment [1] of 3.5 µM. For the same molecule, the Ka in experiment [3] was 15000 M⁻¹.

`O=C1c2ccc(O)cc2C(=O)N1c1ccccc1` displayed a concentration for half-maximal inhibition (IC50) in experiment [1] of more than 500 µM.

In the case of `O=C1c2c(Cl)c(Cl)c(Cl)c(Cl)c2C(=O)N1CCCCc1ccccc1`, in experiment [4], the IC50 is 2 µM. For the same molecule, the Ka in experiment [3] came to 22000 M⁻¹.

In turn, `O=C1c2c(Cl)c(Cl)c(Cl)c(Cl)c2C(=O)N1Cc1ccccc1` had an IC50 in experiment [1] of 10.9 µM. The same molecule showed a Ka in experiment [3] of 15000 M⁻¹.

In experiment [1], `O=C1c2ccc([N+](=O)[O-])cc2C(=O)N1c1ccccc1` showed a half-maximal inhibitory concentration (IC50) of 23.7 µM.

`O=C1c2ccccc2C(=O)N1CCCc1ccccc1` returned an IC50 in experiment [1] of more than 500 µM.

Turning to `O=C1c2c(Cl)c(Cl)c(Cl)c(Cl)c2C(=O)N1CCCc1ccccc1`, in experiment [1], the 50% inhibitory concentration (IC50) is 4.5 µM. Also, the Ka in experiment [3] is 33000 M⁻¹.

In the case of `O=C1c2ccccc2C(=O)N1c1ccccc1` [N-PHENYL-PHTHALIMIDE], in experiment [1], the concentration for half-maximal inhibition (IC50) is more than 500 µM.

Consider `O=C1c2ccccc2C(=O)N1CCc1ccccc1`, for which the IC50 in experiment [1] was more than 500 µM.

Take `O=C1c2c(Cl)c(Cl)c(Cl)c(Cl)c2C(=O)N1CCCCCCc1ccccc1`: the midpoint of inhibition in experiment [1], the IC50, lay at 7 µM.

Consider `Nc1ccc2c(c1)C(=O)N(c1ccccc1)C2=O`, for which the half-maximal inhibitory concentration (IC50) in experiment [1] was more than 500 µM.
